Laboratory results as given in US9078838B2, “Cosmetic or dermatological compositions comprising a mixture of essential oils, and its uses thereof, particularly for the care of sensitive or sensitized skin” (LVMH Recherche, priority 2008, dated 2015).
No end group written: not given here.

Test system: explants of human skin
Test: Release of histamine induced by CRH in explants of human skin (ex vivo cutaneous stress model, ELISA)
Assay type: cell-based
Description: To evaluate the activity of the combination of the invention on the release of histamine, which is an allergy mediator, a cutaneous stress model is reproduced ex vivo by applying a solution of CRH in the survival medium of explants of human skin.
Three explants of skin with a diameter of 8 mm are prepared from healthy human skin originating from surgical removal.
They are placed in 24-well plates and left to stand in an appropriate medium (MCDB 153, insulin, CaCl2, gentamycin) for 24 hours.
CRH (from Neosystem) is dissolved at a concentration of 231 μM in phosphate buffer (PBS) (pH 7.2).
First of all a 5% by weight (50 mg/ml) solution is prepared for each of the essential oils, in ethanol for the helichrysum oil and in DMSO for the cannabis oil.
The 5% by weight solutions are subsequently diluted at the time of use to 1/1000th in the survival medium of the explants, to give the different treatment solutions.
The combination of cannabis and helichrysum essential oils is tested in the form of a treatment solution containing these two essential oils, each at a concentration of 0.005% by weight (50:50 ratio). Each essential oil is likewise tested on its own in the form of a 0.005% by weight treatment solution.
In each well the explant is at the surface of the survival medium. […]

corticotropin-releasing hormone (SEEPPISLDLTFHLLREVLEMARAEQLAQQAHSNRKLMEII; not fully specified (C-terminus); ends and bridges not checked; UniProt P06850 154-194, looked up) [CRH, CRH (from Neosystem), stimulus of histamine release, positive control]
Stimulation of the release of histamine by skin explants (in words) (CRH on skin explants maintained in survival mode): induces significant stimulation of the release of histamine
Histamine (stimulated with CRH 7.7 μM for 2 hours, no essential oil pretreatment (positive control), solvent control 15.3 +/− 1.0): 21.8 ± 1.4 ng/mL
